Measured values as given in ChEMBL document CHEMBL5154646, “Structure-guided optimization of 1H-imidazole-2-carboxylic acid derivatives affording potent VIM-Type metallo-β-lactamase inhibitors” (Eur J Med Chem, 2022).

Tests used:
[1] = Inhibition of bacterial VIM-2 (27 to 266 residues) expressed in Escherichia coli Transetta (DE3) using FC-5 as substrate preincubated with enzyme for 10 mins followed by substrate addition by fluorescence based analysis; parameters: species or system Bacteria
[2] = Inhibition of bacterial recombinant full length C-terminal-TEV-His6-tagged VIM-1 expressed in Escherichia coli Transetta using FC-5 as substrate preincubated with enzyme for 10 mins followed by substrate addition by fluorescence based analysis; parameters: species or system Bacteria
[3] = Inhibition of bacterial recombinant full length N-terminal-TEV-His6-tagged VIM-5 expressed in Escherichia coli Transetta using FC-5 as substrate preincubated with enzyme for 10 mins followed by substrate addition by fluorescence based analysis; parameters: species or system Bacteria
[4] = Inhibition of bacterial NDM-1 (1 to 270 residues) expressed in Escherichia coli Transetta (DE3) using FC-5 as substrate preincubated with enzyme for 10 mins followed by substrate addition by fluorescence based analysis; parameters: species or system Bacteria
[5] = Inhibition of bacterial IMP-1 (1 to 246 residues) expressed in Escherichia coli Transetta (DE3) using FC-5 as substrate preincubated with enzyme for 10 mins followed by substrate addition by fluorescence based analysis; parameters: species or system Bacteria
Escherichia coli [6] = experiment: Potentiation of meropenem-induced antibacterial activity against Escherichia coli C1541 expressing IMP-1 assessed as fold reduction in meropenem MIC at 10 ug/ml incubated for 18 to 20 hrs by CLSI based broth microtiter dilution method; format: functional; conditions: dose 10 µg/ml; time 18-20 hrs
Escherichia coli [7] = experiment: Potentiation of meropenem-induced antibacterial activity against Escherichia coli C1541 expressing VIM-2 assessed as meropenem MIC at 10 ug/ml incubated for 18 to 20 hrs by CLSI based broth microtiter dilution method (reference value: 16 ug/ml); format: functional; conditions: dose 10 µg/ml, time 18-20 hrs
Escherichia coli [8] = experiment: Potentiation of meropenem-induced antibacterial activity against Escherichia coli C1542 expressing VIM-2 assessed as meropenem MIC at 10 ug/ml incubated for 18 to 20 hrs by CLSI based broth microtiter dilution method (reference value: 16 ug/ml); format: functional; conditions: dose 10 µg/ml, time 18-20 hrs
Escherichia coli [9] = experiment: Potentiation of meropenem-induced antibacterial activity against Escherichia coli C1541 expressing IMP-1 assessed as meropenem MIC at 10 ug/ml incubated for 18 to 20 hrs by broth microtiter dilution method (reference value: 32 ug/ml); format: functional; conditions: dose 10 µg/ml, time 18-20 hrs
Escherichia coli [10] = experiment: Potentiation of meropenem-induced antibacterial activity against Escherichia coli C1541 expressing VIM-2 assessed as fold reduction in meropenem MIC at 10 ug/ml incubated for 18 to 20 hrs by CLSI based broth microtiter dilution method; format: functional; conditions: dose 10 µg/ml; time 18-20 hrs
Escherichia coli [11] = experiment: Potentiation of meropenem-induced antibacterial activity against Escherichia coli C1542 expressing VIM-2 assessed as fold reduction in meropenem MIC at 10 ug/ml incubated for 18 to 20 hrs by CLSI based broth microtiter dilution method; format: functional; conditions: dose 10 µg/ml; time 18-20 hrs

SMILES	IC50 [1]	IC50 [2]	IC50 [3]	IC50 [4]	IC50 [5]	fold change (FC) (Escherichia coli [6])	MIC (Escherichia coli [7])	MIC (Escherichia coli [8])	MIC (Escherichia coli [9])	fold change (FC) (Escherichia coli [10])	fold change (FC) (Escherichia coli [11])
Nc1ccc(Cn2ccnc2C(=O)O)cc1	30.2 µM	> 300 µM	> 300 µM	> 300 µM	> 300 µM						
Nn1ccnc1C(=O)O	> 300 µM	> 300 µM	30.6 µM	> 300 µM	> 300 µM						
Cn1cc(Cn2ccnc2C(=O)O)cn1	33.5 µM	> 300 µM	83.9 µM	> 300 µM	> 300 µM						
CN(C)CCCn1ccnc1C(=O)O	> 300 µM	> 300 µM	> 300 µM	> 300 µM	> 300 µM						
O=C(O)c1nccn1Cc1ccsc1	5.07 µM	132 µM	30.3 µM	> 300 µM	> 300 µM						
O=C(O)c1nccn1C1CCCC1	70.4 µM	76.9 µM	> 300 µM	> 300 µM	> 300 µM						
O=C(O)c1nccn1Cc1cccc([N+](=O)[O-])c1	3.58 µM	> 300 µM	18.9 µM	> 300 µM	> 300 µM						
O=C(O)c1ncc(-c2ccccc2)n1Cc1ccccc1	0.015 µM	4.31 µM	0.33 µM	59.2 µM	> 300 µM	1	0.5 µg/mL	1 µg/mL	32 µg/mL	32	16
O=C(O)c1nccn1Cc1ccc(Cl)c(Cl)c1	0.014 µM	2.83 µM	0.052 µM	16.4 µM	9.25 µM						
O=C(O)c1nccn1Cc1cccs1	2.67 µM	50 µM	28.6 µM	> 300 µM	100 µM						
C=CCn1ccnc1C(=O)O	46.4 µM	> 300 µM	> 300 µM	> 300 µM	> 300 µM						
O=C(O)c1nccn1Cc1ccoc1	42.7 µM	> 300 µM	> 300 µM	> 300 µM	> 300 µM						
O=C(O)c1nccn1Cc1ccc(Cl)s1	3.23 µM	> 300 µM	9.02 µM	121 µM	111 µM						
CCc1ccc(Cn2ccnc2C(=O)O)cc1	5.79 µM	> 300 µM	23.4 µM	> 300 µM	> 300 µM						
COC(=O)C(C)n1ccnc1C(=O)O (stereo unspecified)	> 300 µM	> 300 µM	> 300 µM	> 300 µM	> 300 µM						
CC(C)n1ccnc1C(=O)O	10.1 µM	21.2 µM	133 µM	> 300 µM	> 300 µM						
O=C(O)c1nccn1CCO	75.2 µM	> 300 µM	> 300 µM	> 300 µM	> 300 µM						
N#CCCCn1ccnc1C(=O)O	11.8 µM	47.1 µM	15.6 µM	> 300 µM	65.6 µM						
O=C(O)c1nccn1Cc1cccnc1Cl	0.77 µM	30.5 µM	22 µM	> 300 µM	> 300 µM						
CC(O)Cn1ccnc1C(=O)O (stereo unspecified)	> 300 µM	> 300 µM	> 300 µM	> 300 µM	> 300 µM						
O=C(O)c1nccn1C1CNC1	68.1 µM	26 µM	104 µM	> 300 µM	> 300 µM						
CC(C(=O)O)n1ccnc1C(=O)O (stereo unspecified)	52.4 µM	> 300 µM	32.5 µM	> 300 µM	> 300 µM						
Cc1ccc(Cn2ccnc2C(=O)O)cc1	3.47 µM	> 300 µM	139 µM	> 300 µM	> 300 µM						
CC(C)Cn1ccnc1C(=O)O	1.1 µM	22.9 µM	7.02 µM	> 300 µM	> 300 µM						
O=C(O)c1ncc[nH]1	65.4 µM	> 300 µM	30.9 µM	> 300 µM	> 300 µM						
O=C(O)c1nccn1C1CCC1	11.8 µM	32.1 µM	> 300 µM	> 300 µM	161 µM						
N#CCCn1ccnc1C(=O)O	22.2 µM	> 300 µM	> 300 µM	> 300 µM	> 300 µM						

SMILES	IC50 [1]	IC50 [2]	IC50 [3]	IC50 [4]	IC50 [5]	fold change (FC) (Escherichia coli [6])	MIC (Escherichia coli [7])	MIC (Escherichia coli [8])	MIC (Escherichia coli [9])	fold change (FC) (Escherichia coli [10])	fold change (FC) (Escherichia coli [11])
CCCn1ccnc1C(=O)O	2.67 µM	15.3 µM	18.9 µM	> 300 µM	58.4 µM						
NCCn1ccnc1C(=O)O	> 300 µM	> 300 µM	> 300 µM	> 300 µM	> 300 µM						
O=C(O)c1nccn1C1COC1	> 300 µM	> 300 µM	> 300 µM	> 300 µM	> 300 µM						
O=C(O)c1nc(C2CC2)cn1Cc1ccccc1	11.5 µM	> 300 µM	> 300 µM	> 300 µM	17.8 µM						
C[S+]([O-])Cn1ccnc1C(=O)O (stereo unspecified)	64.1 µM	> 300 µM	> 300 µM	> 300 µM	> 300 µM						
O=C(O)c1ncc(C2CC2)n1Cc1ccccc1	0.13 µM	15.5 µM	0.18 µM	34.1 µM	110 µM						
CS(=O)(=O)Cn1ccnc1C(=O)O	33.6 µM	> 300 µM	249 µM	> 300 µM	> 300 µM						
Cn1nnnc1SCCn1ccnc1C(=O)O	2.13 µM	45.7 µM	16.5 µM	> 300 µM	160 µM						
NC(=O)Cn1ccnc1C(=O)O	118 µM	> 300 µM	> 300 µM	> 300 µM	> 300 µM						
CSCn1ccnc1C(=O)O	6.89 µM	18 µM	64 µM	> 300 µM	114 µM						
COCCn1ccnc1C(=O)O	15.5 µM	272 µM	101 µM	> 300 µM	> 300 µM						
O=C(O)c1nccn1Cc1ccccn1	5.54 µM	> 300 µM	> 300 µM	> 300 µM	> 300 µM						
CCC(C)n1ccnc1C(=O)O (stereo unspecified)	2.04 µM	21.3 µM	31.6 µM	> 300 µM	> 300 µM						
Nc1cccc(Cn2ccnc2C(=O)O)c1	7.76 µM	> 300 µM	> 300 µM	> 300 µM	> 300 µM						
O=C(O)c1nccn1C1CC1	19.4 µM	29.7 µM	47.1 µM	> 300 µM	> 300 µM						
O=C(O)c1nccn1Cc1ccc(F)c(F)c1	15.8 µM	> 300 µM	14.9 µM	> 300 µM	> 300 µM						
O=C(O)c1nccn1Cc1ccc([N+](=O)[O-])cc1	2.7 µM	13.9 µM	0.065 µM	114 µM	30.2 µM						
C=CCCn1cc(C)nc1C(=O)O	13.7 µM	> 300 µM	90.5 µM	> 300 µM	4.05 µM						
Cc1cn(Cc2ccccc2)c(C(=O)O)n1	10.7 µM	> 300 µM	31.9 µM	> 300 µM	1.5 µM						
O=C(O)c1nc(-c2ccccc2)cn1Cc1ccccc1	79.1 µM	> 300 µM	48.3 µM	> 300 µM	9.29 µM						
CCn1ccnc1C(=O)O	32 µM	> 300 µM	> 300 µM	> 300 µM	> 300 µM						
Cn1ccnc1C(=O)O	> 300 µM	227 µM	> 300 µM	> 300 µM	> 300 µM						
CN(C)CCn1ccnc1C(=O)O	> 300 µM	> 300 µM	> 300 µM	> 300 µM	> 300 µM						
O=C(O)c1nccn1CCn1ccnn1	6.68 µM	> 300 µM	47.3 µM	> 300 µM	> 300 µM						
O=C(O)c1nccn1Cc1ccco1	1.55 µM	11.7 µM	21 µM	> 300 µM	10.3 µM						
O=C(O)c1nccn1Cc1ccc(C(F)(F)F)cc1	0.56 µM	17.5 µM	0.28 µM	> 300 µM	53.7 µM						
NCCCn1ccnc1C(=O)O	42.9 µM	> 300 µM	68.2 µM	> 300 µM	> 300 µM						
